# Source: a melting point compilation (Tetko et al.; mined from patent text by program, amines drawn as free bases though some values may be those of a salt)
row,Compound,melting point
1,CCOC(=O)Nc1nc(-c2ccccc2)c(-c2nc3ccccc3c(=O)n2-c2ccc(C)cc2)s1,> 275 °C
2,COc1cc(O)c2c(c1O)CC(C)=C(C)C2,200 to 201 °C
3,CC(Oc1ncn(-c2cccc(Br)c2)n1)C(=O)N1CCCC1 (centres undefined),111 to 113 °C
4,COc1ccc(-c2nn(CC3CC3)c(=O)c(C(N)=O)c2-c2ccc(OC)cc2)cc1,174 to 175 °C
5,COc1cccc(-n2c(CC(c3ccccc3)c3c[nH]c4ccccc34)nc3ccccc3c2=O)c1 (centres undefined),160 to 164 °C
6,CN1CCN(c2cccc3ccc(-n4cnc5ncccc54)cc23)CC1,107 to 112 °C
7,COC(=O)c1nc2cc(Cl)ccc2c(O)c1C(=O)OC,232 to 233 °C
8,Cc1ccccc1C(C)Oc1cc(OCc2ccccc2)ccc1C(=O)O (centres undefined),110 to 113 °C
9,COc1ccc(-c2ccc(C(C)=O)cc2[N+](=O)[O-])c(OC)c1,129 to 131 °C
10,CSc1c[nH]c2ncccc12,115 to 116 °C
11,CC(C)(C)OC(=O)NCCNC(=O)c1nc(Cl)sc1-c1ccccc1,114 to 116 °C
12,Cc1ccccc1NC(=N)NC12CC3CC(CC(C3)C1)C2,160 to 161 °C
13,CCC(Cc1cc(C(C)(C)C)c(O)c(C(C)(C)C)c1)[N+](=O)[O-] (centres undefined),55 to 60 °C
14,O=S1(=O)NCCNc2ccc(Oc3cccc(CO)c3)cc21,146 °C
15,CCCOc1ccc(F)c2c(=O)c(-c3ccc(C(=O)N4CCOCC4)cc3)c[nH]c12,234 to 236 °C
16,N#Cc1cccc(NC2CCN(Cc3cc(F)cc(C(F)(F)F)c3)CC2)n1,115 °C
17,Cc1nn(-c2cccnc2)c(-c2ccccc2)c1CC(=O)O,197 to 199 °C
18,Cc1ccc(S(=O)(=O)N2[C@@H](CCc3nnco3)CC[C@H]2c2ccc(F)cc2)cc1 (racemic),138 °C
19,CC(=O)Nc1ccc(-c2nc3ccccc3o2)cc1,214 to 215 °C
20,Cn1cc(C(=O)NCc2ccc(Cl)cc2)c(=O)c2cc(CN3CCOCC3)cc(C#CCF)c21,189 to 191 °C
21,CC(=O)c1cc2c(s1)Oc1ccccc1N=C2N1CCN(C)CC1,143 to 144 °C
22,Cc1cccc(C(=O)P2(=O)Oc3ccccc3-c3ccccc32)c1 (centres undefined),108 to 111 °C
23,Cc1cc(Oc2c(Cl)cc(C(F)(F)F)cc2Cl)ccc1S(=O)(=O)C(F)(F)F,121 to 122 °C

row,Compound,melting point
1,CC12CC(C(F)F)C3C4CCC(=O)C=C4CCC3C1CCC2=O (centres undefined),149 to 151 °C
2,CCN1CCNC(=O)c2ccc(Nc3ncc(Cl)c(Nc4ccccc4OCCN4CCOCC4)n3)cc21,223 to 225 °C
3,CCCc1cc(CO)cc(=O)[nH]1,167 °C
4,Cc1cccc(-c2ccc(NC(=O)Nc3ccc(Oc4cc(N)ncn4)cc3)cc2C(F)(F)F)n1,130 to 133 °C
5,C=CS(=O)(=O)c1c(Cl)c(Cl)nn1C,66 to 69 °C
6,S=c1c2c(c3cccnc3n1-c1ccccc1)OCC2,242 to 244 °C
7,O=C1CCC(N2Cc3c(OCc4ccc(Cn5cnnc5)cc4)cccc3C2=O)C(=O)N1 (centres undefined),173 to 175 °C
8,CC1(C)CCC(C)(C)C2=C1C=C(CC#Cc1ccc(C(=O)O)cc1)CC2(O)OCc1ccc(C(F)(F)F)cc1 (centres undefined),222 °C
9,Cc1oc(-c2ccccc2)nc1COc1ccc(COc2nn(-c3ccccc3)cc2/C=C/C(=O)O)cc1,186 to 187 °C
10,CCC(C)(C)c1cc(-c2cc(F)cc(C=C3SC(N4CCOCC4)=NC3=O)c2)ccc1O,210 to 212 °C
11,CN1CCc2c(Cl)ccc(CO)c2CC1,136 to 140 °C
12,COc1ccc(Cl)cc1-c1c(N)c(=O)[nH]c2cc(C(F)(F)F)c(Cl)cc12,252 to 253 °C
13,O=C(Nc1ccc(Oc2ccnc(NC3CCS(=O)(=O)C3)n2)c2ccccc12)c1cc(F)cc(N2CCOCC2)c1 (centres undefined),150 to 151 °C
14,O=C1C(=Cc2ccoc2)CCc2cc(OCCn3ccnc3)ccc21,116 to 117 °C
15,CCN(c1cc(S(C)(=O)=O)ccc1C(=O)O)S(C)(=O)=O,199 to 200 °C
16,O=C(Nc1ccc(S(=O)(=O)Oc2ccccc2)cc1[N+](=O)[O-])NS(=O)(=O)Cl,190 °C
17,O=C(Cc1ccncc1)NC1CCCCC1,147 to 148 °C
18,COc1ccc(C#N)c(C(=O)Cl)c1,192 to 194 °C
19,CCOC(=O)c1c(C)cc2c(c1C)c(=O)n(-c1ccccc1C(F)(F)F)c(=O)n2CCN1CCCCC1,144 to 145 °C
20,Cc1nc2c(s1)-c1nc(Nc3ccc(N4CCOCC4)cc3)ncc1CC2,236 to 237 °C
21,CS(=O)(=O)N(c1ccc(CN2N=C(c3ccc(Cl)cc3)c3ccccc3-n3cnnc32)cc1)S(C)(=O)=O,220 to 221 °C
22,O=C(O)Cc1cccc(Cc2nc3c(F)c(F)cc(F)c3s2)c1Cl,156 to 158 °C
23,COc1cc2nc(N)nc(-c3ccc(O)c(C(=O)O)c3)c2cc1OC,> 300 °C

row,Compound,melting point
1,COc1ccc(S(=O)(=O)N(Cc2ccccc2)C(C(=O)NO)C(O)C(C)C)cc1 (centres undefined),81 to 82 °C
2,CCC1CCC2(C)C(=CCC3C4CC(O)C(=O)C4(C)CCC32)C1 (centres undefined),166 to 168 °C
3,Cc1ccc(OCc2c(F)cccc2F)c(N)n1,121 to 123 °C
4,Cc1ccc(Cl)c(N)c1C#N,77 to 80 °C
5,ClCCOc1ccc([C@H]2c3ccc(OCc4ccccc4)cc3OC[C@H]2c2ccccc2)cc1 (racemic),66 to 70.6 °C
6,COc1ccc(SC2SC(=O)NC2=O)cc1 (centres undefined),89 to 91 °C
7,CCCCCCCCCCCCCCCCSC(=O)Nc1ccc(NC(=O)NS(=O)(=O)c2ccc(OC)cc2)cc1,197 °C
8,COc1c(C)c2c(c(OS(=O)(=O)c3ccc(C)cc3)c1CC1=C(C)C(=O)CC1)C(=O)OC2,65.4 to 66.8 °C
9,CS(=O)(=O)c1ccc(-c2cc(/C=C\CCO[N+](=O)[O-])nn2C2CCCCC2)cc1,129 to 130 °C
10,CNc1c(NCCNCc2ccc(CN3CCCCC3)o2)c(=O)c1=O,145 to 147 °C
11,CCCCOc1ccc(-c2ccc(-c3ccc(-c4ccc(-c5ccc(OCCCC)cc5)s4)c4nsnc34)s2)cc1,330 to 331 °C
12,O=C(O)COc1cccc2c1CCc1sc(S(=O)(=O)C(c3ccccc3F)c3ccccc3F)nc1-2,204 to 208 °C
13,Cn1c2c(c(=O)n(-c3ccc(Cl)c(C(=O)OC(C)(C)C)c3)c1=O)CCC2,189 to 191 °C
14,N#CCN1CCC(c2n[nH]c3cc(F)ccc23)CC1,149 to 151 °C
15,Cn1nc(C#N)c(Nc2ccc(F)cc2[N+](=O)[O-])n1,159 to 160 °C
16,Cc1cc(-c2cc(C(F)(F)F)n3ncc(C(=O)Nc4cc(S(=O)(=O)NC(C)(C)CO)sc4Cl)c3n2)ccc1C(F)(F)F,207 °C
17,Cc1c(C)n(CC2CC2)c2c(OCc3ccccc3)nncc12,123 to 124 °C
18,COc1cc2c(cc1OC)CCC=C2,90.5 to 91 °C
19,Cc1cccc(C(=O)Nc2cccc3c2C(=O)N(C2CCC(=O)NC2=O)C3=O)c1 (centres undefined),234 to 236 °C
20,CCCS(=O)(=O)c1ccccc1S(=O)(=O)NC(=O)Nc1nc(Cl)cc(OC)n1,193 to 195 °C
21,O=C(Nc1cn(C2CCCCO2)nc1C(=O)NCCNc1ccccn1)c1ccccn1 (centres undefined),178 to 180 °C
22,O=C(Nc1ccc(C(=O)N2Cc3ccccc3Cc3ccccc32)cc1)c1ccc(Cl)cc1Cl,212 to 215 °C
23,O=C(Nc1ccc(Cl)cc1)Nn1cnc2c(O)cccc2c1=O,266 to 268 °C
